PubChem BioAssay (NCI)
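Following 48 hours of exposure in 96-well plates, responses at five concentrations were used to interpolate endpoints linearly. TGI marks complete inhibition of growth.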

Assays:
Assay in all cases: NCI anticancer screen, dose series, 48 h
786-0 renal = test system: 786-0 renal
CAKI-1 renal = test system: CAKI-1 renal
CCRF-CEM leukemia = test system: CCRF-CEM leukemia
EKVX NSCLC = test system: EKVX NSCLC
HS 578T breast = test system: HS 578T breast
HT29 colon = test system: HT29 colon
IGROV1 ovarian = test system: IGROV1 ovarian
LOX IMVI melanoma = test system: LOX IMVI melanoma
MALME-3M melanoma = test system: MALME-3M melanoma
MCF7 breast = test system: MCF7 breast
MDA-MB-231 breast = test system: MDA-MB-231 breast
MDA-MB-435 = test system: MDA-MB-435
NCI-H23 lung = test system: NCI-H23 lung
OVCAR-5 ovarian = test system: OVCAR-5 ovarian
OVCAR-8 ovarian = test system: OVCAR-8 ovarian
RXF 393 renal = test system: RXF 393 renal
SK-OV-3 ovarian = test system: SK-OV-3 ovarian
SNB-19 CNS = test system: SNB-19 CNS
UACC-62 melanoma = test system: UACC-62 melanoma

Row | SMILES | TGI (786-0 renal) | TGI (CAKI-1 renal) | TGI (CCRF-CEM leukemia) | TGI (EKVX NSCLC) | TGI (HS 578T breast) | TGI (HT29 colon) | TGI (IGROV1 ovarian) | TGI (LOX IMVI melanoma) | TGI (MALME-3M melanoma) | TGI (MCF7 breast) | TGI (MDA-MB-231 breast) | TGI (MDA-MB-435) | TGI (NCI-H23 lung) | TGI (OVCAR-5 ovarian) | TGI (OVCAR-8 ovarian) | TGI (RXF 393 renal) | TGI (SK-OV-3 ovarian) | TGI (SNB-19 CNS) | TGI (UACC-62 melanoma)
1 | CSc1ccc2c(cc1=O)[C@@H](NC(=O)c1ccc([N+](=O)[O-])cc1)CCc1cc(O)c(O)c(O)c1-2 | 84.1 µM | 42.6 µM | > 100 µM | > 100 µM | 62 µM | 40.8 µM | > 100 µM | > 100 µM | > 100 µM | > 100 µM | 81.2 µM | > 100 µM | > 100 µM | > 100 µM | > 100 µM | > 100 µM | > 100 µM | > 100 µM | > 100 µM
2 | COc1ccc(/C=C(/c2ccccc2)c2c(C)cc(C)c(/C(=C\c3ccc(OC)cc3)c3ccccc3)c2N=Nc2cc(C)cc(C)c2)cc1 | > 100 µM | > 100 µM | > 100 µM | > 100 µM | > 100 µM | > 100 µM | > 100 µM | > 100 µM | 56.6 µM | > 100 µM | 16 µM | > 62.2 µM | > 83.8 µM | > 100 µM | > 100 µM | > 95.9 µM | > 100 µM | > 100 µM | > 100 µM
3 | COCn1c(C)c(C)c2c(=O)oc(C)nc21 | > 100 µM | 45 µM | > 100 µM | > 100 µM | > 100 µM | > 100 µM | > 100 µM | > 100 µM | > 100 µM | > 100 µM | > 100 µM | > 100 µM | > 100 µM | > 100 µM | > 100 µM | > 100 µM | > 100 µM | > 100 µM | > 100 µM
4 | Nc1[nH]c(=S)c2c(N)n[nH]c2c1C(=O)Nc1ccc(Cl)cc1 | > 100 µM | > 100 µM | – | > 100 µM | > 100 µM | > 100 µM | > 100 µM | 40.1 µM | > 100 µM | > 100 µM | > 100 µM | > 100 µM | – | > 100 µM | > 100 µM | > 100 µM | > 100 µM | > 100 µM | > 100 µM
5 | CCn1c(=O)c2c3cc(OC(C)=O)ccc3oc2c2ccc(OC(C)=O)cc21 | > 100 µM | > 100 µM | > 100 µM | 70.3 µM | > 100 µM | > 100 µM | > 100 µM | – | > 100 µM | > 100 µM | > 100 µM | > 100 µM | > 100 µM | – | > 100 µM | > 100 µM | > 100 µM | > 100 µM | > 100 µM
6 | Cc1nnc([C@@]2(C)CC[C@H]3[C@@H](CCC4=CC(=O)CC[C@@]43C)[C@@H]2CC#N)o1 | > 100 µM | > 100 µM | > 100 µM | > 100 µM | > 100 µM | > 100 µM | > 100 µM | > 100 µM | > 100 µM | > 100 µM | > 100 µM | > 100 µM | > 100 µM | > 100 µM | > 100 µM | > 100 µM | > 100 µM | > 100 µM | > 100 µM
